Results as given in patent US8952024B2, “Herbicidal pyrimidone derivatives” (E I du Pont de Nemours and Company, priority 2009, dated 2015).

Assays:
Format in all cases: in vivo
[1] = system: barnyardgrass (Echinochloa crus-galli); test: Test B flooded paddy test; conditions: for Plant response rating, Flood, Barnyardgrass: 250 g ai/ha, flooded paddy test, visual rating on 0 to 100 scale (0 no effect, 100 complete control) after 13 to 15 days; for Plant response rating, Barnyardgrass: Flood (flooded paddy test), 13 to 15 days; for Barnyardgrass plant response rating: Flood, 31 g ai/ha, scale 0 to 100 (0 no effect, 100 complete control)
How it was run: (§1)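 Ratings are visual, 0–100 (100 = complete control), taken versus untreated controls 13 to 15 days after treatment in the greenhouse. Compound went straight into paddy water held 3 cm above soil, applied to 2-leaf-stage plants of four species.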

[2] = system: umbrella sedge (Cyperus difformis); test: Test B flooded paddy test; conditions: for Plant response rating, Flood, Sedge, Umbrella: 250 g ai/ha, flooded paddy test, visual rating on 0 to 100 scale (0 no effect, 100 complete control) after 13 to 15 days; for Plant response rating, Sedge, Umbrella: Flood (flooded paddy test), 13 to 15 days; for Sedge, Umbrella plant response rating: Flood, 31 g ai/ha, scale 0 to 100 (0 no effect, 100 complete control)
How it was run: as §1

[3] = system: ducksalad (Heteranthera limosa); test: Test B flooded paddy test; conditions: for Plant response rating, Flood, Ducksalad: 250 g ai/ha, flooded paddy test, visual rating on 0 to 100 scale (0 no effect, 100 complete control) after 13 to 15 days; for Plant response rating, Ducksalad: Flood (flooded paddy test), 13 to 15 days; for Ducksalad plant response rating: Flood, 31 g ai/ha, scale 0 to 100 (0 no effect, 100 complete control)
How it was run: as §1

rice (Oryza sativa) = test: Test B flooded paddy test; conditions: for Plant response rating, Flood, Rice: 250 g ai/ha, flooded paddy test, visual rating on 0 to 100 scale (0 no effect, 100 complete control) after 13 to 15 days; for Plant response rating, Rice: Flood (flooded paddy test), 13 to 15 days; for Rice plant response rating: Flood, 31 g ai/ha, scale 0 to 100 (0 no effect, 100 complete control)
How it was run: as §1

[4] = system: windgrass (Apera spica-venti); test: Test B postemergence plant response; conditions: Postemergence
How it was run: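 Visual ratings from 0 (no effect) to 100 (complete control), made against controls 13–15 days after treatment, kept in a greenhouse. Compounds were applied postemergence to potted plants at the 1- to 4-leaf stage (2–18 cm).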

[5] = system: barnyardgrass (Echinochloa crus-galli); test: Test A pre-/postemergence plant response; conditions: for Barnyardgrass plant response rating: visual injury, 0 to 100 scale (0 no effect, 100 complete control), approx. ten days
How it was run: (§2)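 Injury was scored visually after roughly ten days against untreated controls, 0 = no effect, 100 = complete control. Test chemicals in a surfactant-containing non-phytotoxic solvent were sprayed either onto soil preemergence or onto one- to two-leaf, 2–10 cm plants postemergence.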

corn (Zea mays) = test: Test A pre-/postemergence plant response; conditions: for Corn plant response rating: visual injury, 0 to 100 scale (0 no effect, 100 complete control), approx. ten days
How it was run: as §2

[6] = system: pigweed (Amaranthus retroflexus); test: Test A pre-/postemergence plant response; conditions: for Pigweed plant response rating: visual injury, 0 to 100 scale (0 no effect, 100 complete control), approx. ten days
How it was run: as §2

[7] = system: wheat (Triticum aestivum); test: Test A pre-/postemergence plant response; conditions: for Wheat plant response rating: visual injury, 0 to 100 scale (0 no effect, 100 complete control), approx. ten days
How it was run: as §2

[8] = system: morningglory (Ipomoea spp.); test: Test A pre-/postemergence plant response; conditions: for Morningglory plant response rating: visual injury, 0 to 100 scale (0 no effect, 100 complete control), approx. ten days
How it was run: as §2

[9] = system: giant foxtail (Setaria faberii); test: Test A pre-/postemergence plant response; conditions: for Foxtail, Giant plant response rating: visual injury, 0 to 100 scale (0 no effect, 100 complete control), approx. ten days
How it was run: as §2

[10] = system: large crabgrass (Digitaria sanguinalis); test: Test A pre-/postemergence plant response; conditions: for Crabgrass, Large plant response rating: visual injury, 0 to 100 scale (0 no effect, 100 complete control), approx. ten days
How it was run: as §2

[11] = system: velvetleaf (Abutilon theophrasti); test: Test A pre-/postemergence plant response; conditions: for Velvetleaf plant response rating: visual injury, 0 to 100 scale (0 no effect, 100 complete control), approx. ten days
How it was run: as §2

[12] = 62 g ai/ha, scale of 0 to 100 where 0 is no effect and 100 is complete control
[13] = 125 g ai/ha, scale 0 to 100, 0 is no effect, 100 is complete control
[14] = 31 g ai/ha, 0 to 100 scale (0 no effect, 100 complete control)
[15] = 250 g ai/ha, scale 0 to 100 (0 no effect, 100 complete control), 13 to 15 days
[16] = 62 g ai/ha, scale 0 to 100 (0 no effect, 100 complete control)
[17] = Postemergence, 125 g ai/ha, 0 to 100 scale where 0 is no effect and 100 is complete control
[18] = Preemergence, 125 g ai/ha, 0 to 100 scale, 0 = no effect, 100 = complete control
[19] = Preemergence, 500 g ai/ha, 0 to 100 scale, 0 = no effect, 100 = complete control

## CCCn1c(-c2ccccc2)ncc(C(=O)C2=C(O)C3CCC(C3)C2=O)c1=O (stereo not drawn) [Compound 226]
[1]
  Plant response rating, Flood, Barnyardgrass: 95
  Barnyardgrass plant response rating: 50
[1]; [12]
  Plant response rating, Barnyardgrass: 60
[1]; [13]
  Plant response rating, Barnyardgrass: 95
[2]
  Plant response rating, Flood, Sedge, Umbrella: 60
  Sedge, Umbrella plant response rating: 30
[2]; [12]
  Plant response rating, Sedge, Umbrella: 40
[2]; [13]
  Plant response rating, Sedge, Umbrella: 50
[3]
  Plant response rating, Flood, Ducksalad: 40
  Ducksalad plant response rating: 0
[3]; [12]
  Plant response rating, Ducksalad: 0
[3]; [13]
  Plant response rating, Ducksalad: 30
Rice (Oryza sativa)
  Plant response rating, Flood, Rice: 65
  Rice plant response rating: 20
Rice (Oryza sativa); [12]
  Plant response rating, Rice: 40
Rice (Oryza sativa); [13]
  Plant response rating, Rice: 60
[4]; [14]
  Plant response rating, Windgrass: 10
[4]; [15]
  Plant response rating, Windgrass: 85
[4]; [16]
  Plant response rating, Windgrass: 50
[5]; [17]
  Plant response rating, Barnyardgrass: 90
[5]; Postemergence, 500 g ai/ha
  Barnyardgrass plant response rating: 90
[5]; [18]
  Plant response rating, Barnyardgrass: 30
[5]; [19]
  Plant response rating, Barnyardgrass: 100
Corn (Zea mays); [17]
  Plant response rating, Corn: 10
Corn (Zea mays); Postemergence, 500 g ai/ha
  Corn plant response rating: 60
Corn (Zea mays); [18]
  Plant response rating, Corn: 0
Corn (Zea mays); [19]
  Plant response rating, Corn: 0
[6]; [17]
  Plant response rating, Pigweed: 100
[6]; Postemergence, 500 g ai/ha
  Pigweed plant response rating: 100
[6]; [18]
  Plant response rating, Pigweed: 100
[6]; [19]
  Plant response rating, Pigweed: 100
[7]; [17]
  Plant response rating, Wheat: 0
[7]; Postemergence, 500 g ai/ha
  Wheat plant response rating: 50
[7]; [18]
  Plant response rating, Wheat: 0
[7]; [19]
  Plant response rating, Wheat: 10
[8]; [17]
  Plant response rating, Morningglory: 100
[8]; Postemergence, 500 g ai/ha
  Morningglory plant response rating: 100
[8]; [18]
  Plant response rating, Morningglory: 60
[8]; [19]
  Plant response rating, Morningglory: 80
[9]; [17]
  Plant response rating, Foxtail, Giant: 90
[9]; Postemergence, 500 g ai/ha
  Foxtail, Giant plant response rating: 90
[9]; [18]
  Plant response rating, Foxtail, Giant: 70
[9]; [19]
  Plant response rating, Foxtail, Giant: 90
[10]; [17]
  Plant response rating, Crabgrass, Large: 90
[10]; Postemergence, 500 g ai/ha
  Crabgrass, Large plant response rating: 100
[10]; [18]
  Plant response rating, Crabgrass, Large: 90
[10]; [19]
  Plant response rating, Crabgrass, Large: 100
[11]; [17]
  Plant response rating, Velvetleaf: 100
[11]; Postemergence, 500 g ai/ha
  Velvetleaf plant response rating: 100
[11]; [18]
  Plant response rating, Velvetleaf: 80
[11]; [19]
  Plant response rating, Velvetleaf: 100

## CCn1c(-c2cccc(F)c2)ncc(C(=O)C2=C(O)C3CCC(C3)C2=O)c1=O (stereo not drawn) [Compound 236]
[1]
  Plant response rating, Flood, Barnyardgrass: 20
  Barnyardgrass plant response rating: 0
[1]; [12]
  Plant response rating, Barnyardgrass: 0
[1]; [13]
  Plant response rating, Barnyardgrass: 0
[2]
  Plant response rating, Flood, Sedge, Umbrella: 40
  Sedge, Umbrella plant response rating: 0
[2]; [12]
  Plant response rating, Sedge, Umbrella: 0
[2]; [13]
  Plant response rating, Sedge, Umbrella: 0
[3]
  Plant response rating, Flood, Ducksalad: 70
  Ducksalad plant response rating: 0
[3]; [12]
  Plant response rating, Ducksalad: 0
[3]; [13]
  Plant response rating, Ducksalad: 60
Rice (Oryza sativa)
  Plant response rating, Flood, Rice: 0
  Rice plant response rating: 0
Rice (Oryza sativa); [12]
  Plant response rating, Rice: 0
Rice (Oryza sativa); [13]
  Plant response rating, Rice: 0
[4]; [14]
  Plant response rating, Windgrass: 30
[4]; [15]
  Plant response rating, Windgrass: 85
[4]; [16]
  Plant response rating, Windgrass: 50
[5]; [17]
  Plant response rating, Barnyardgrass: 90
[5]; Postemergence, 500 g ai/ha
  Barnyardgrass plant response rating: 90
[5]; [18]
  Plant response rating, Barnyardgrass: 50
[5]; [19]
  Plant response rating, Barnyardgrass: 90
Corn (Zea mays); [17]
  Plant response rating, Corn: 20
Corn (Zea mays); Postemergence, 500 g ai/ha
  Corn plant response rating: 50
Corn (Zea mays); [18]
  Plant response rating, Corn: 0
Corn (Zea mays); [19]
  Plant response rating, Corn: 10
[6]; [17]
  Plant response rating, Pigweed: 80
[6]; Postemergence, 500 g ai/ha
  Pigweed plant response rating: 100
[6]; [18]
  Plant response rating, Pigweed: 80
[6]; [19]
  Plant response rating, Pigweed: 90
[7]; [17]
  Plant response rating, Wheat: 0
[7]; Postemergence, 500 g ai/ha
  Wheat plant response rating: 40
[7]; [18]
  Plant response rating, Wheat: 0
[7]; [19]
  Plant response rating, Wheat: 30
[8]; [17]
  Plant response rating, Morningglory: 100
[8]; Postemergence, 500 g ai/ha
  Morningglory plant response rating: 100
[8]; [18]
  Plant response rating, Morningglory: 70
[8]; [19]
  Plant response rating, Morningglory: 80
[9]; [17]
  Plant response rating, Foxtail, Giant: 70
[9]; Postemergence, 500 g ai/ha
  Foxtail, Giant plant response rating: 90
[9]; [18]
  Plant response rating, Foxtail, Giant: 40
[9]; [19]
  Plant response rating, Foxtail, Giant: 70
[10]; [17]
  Plant response rating, Crabgrass, Large: 80
[10]; Postemergence, 500 g ai/ha
  Crabgrass, Large plant response rating: 90
[10]; [18]
  Plant response rating, Crabgrass, Large: 80
[10]; [19]
  Plant response rating, Crabgrass, Large: 100
[11]; [17]
  Plant response rating, Velvetleaf: 100
[11]; Postemergence, 500 g ai/ha
  Velvetleaf plant response rating: 100
[11]; [18]
  Plant response rating, Velvetleaf: 80
[11]; [19]
  Plant response rating, Velvetleaf: 100
